Test results published in patent US8816052B2, “Mutant apoprotein of photoprotein with low calcium sensitivity” (JNC Corporation, priority 2011, dated 2014).

Key:
Type in all cases: biochemical
Native Aequorin = biological target: T1, Native Aequorin (Aequorea victoria, UniProt P02592); test: Substrate specificity: semi-synthetic aequorin from coelenterazine analogue and purified apoaequorin; conditions: for Luminescence Intensity for 60 Secs: CTZ = 100; for Relative Luminescence Intensity: CTZ = 100, 50 mM calcium solution
T1 construct: His tag (from the vector name piP-His-HE); made in house
T1 sequence (P02592 9-196 limits assumed): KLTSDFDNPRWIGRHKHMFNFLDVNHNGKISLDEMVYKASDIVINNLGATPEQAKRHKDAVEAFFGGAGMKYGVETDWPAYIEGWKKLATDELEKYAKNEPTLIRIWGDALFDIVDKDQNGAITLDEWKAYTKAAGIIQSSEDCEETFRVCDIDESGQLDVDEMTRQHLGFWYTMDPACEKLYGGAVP
Experimental: (§1) AM20 was prepared to examine the properties. Specifically, 1 ml of 30 mM Tris-HCl (pH 7.6) containing 10 mM EDTA was mixed with 2-mercaptoethanol (1 μl) and a solution of the coelenterazine analogue (1 μg/μl) dissolved in ethanol. Then, 10 μl of the purified apoaequorin or recombinant mutant apoaequorin AM20 was added to the mixture, which was allowed to stand on ice (4° C.) for 5 hours to perform the regeneration reaction. […] The half decay time was determined from the luminescence patterns.

Mutant Aequorin AM20 = biological target: T2, Mutant Aequorin AM20 (Aequorea victoria, UniProt P02592, H34Q/K37A/N33D/S39T/V32K); conditions: for Half Decay Time / Luminescence Intensity for 60 Secs / Relative Luminescence Intensity: Mutant Aequorin AM20; for Luminescence Intensity for 60 Secs / Relative Luminescence Intensity: CTZ = 100; for Relative Luminescence Intensity: 50 mM calcium solution; for half decay time of the luminescence of the semi-synthetic aequorin: analogue as light-emitting substrate, statement in words
T2 construct: OmpA secretory signal peptide (N); histidine tag (N); made in house; host or cells: Escherichia coli strain WA802
Experimental: as §1

[1] = Luminescence activity and half decay time of mutant aequorins regenerated from E. coli extracts; conditions: E. coli JM83 extract regenerated with coelenterazine, final calcium 25 mM
Experimental: To express in Escherichia coli the mutant apoaequorin expression vector having the replaced other EF hand loop sequence which was constructed in (2) above, the mutant apoaequorin expression vector was transfected to Escherichia coli JM83 in a conventional manner. The transformants obtained were inoculated into 10 ml of LB liquid medium (10 g of bacto-tryptone, 5 g of yeast extract and 5 g of sodium chloride, per liter of water, pH 7.2) containing ampicillin (50 μg/ml) and cultured at 37° C. for 18 hours. […] Subsequently, 2-mercaptoethanol (1 μl) (manufactured by Wako Pure Chemical Industry) and a solution of substrate coelenterazine in ethanol (1 μg/μl) (JNC Corporation, hereinafter the same) were mixed with the recombinant mutant apoaequorin extract. The mixture was allowed to stand on ice (4° C.) for 18 hours thereby to regenerate into the mutant aequorin. […] The final calcium level in the reaction solution was 25 mM. The luminescence activity was expressed by relative activity (%) to the maximum intensity (Imax).

T2 sequence (P02592 9-196 V32K/N33D/H34Q/K37A/S39T): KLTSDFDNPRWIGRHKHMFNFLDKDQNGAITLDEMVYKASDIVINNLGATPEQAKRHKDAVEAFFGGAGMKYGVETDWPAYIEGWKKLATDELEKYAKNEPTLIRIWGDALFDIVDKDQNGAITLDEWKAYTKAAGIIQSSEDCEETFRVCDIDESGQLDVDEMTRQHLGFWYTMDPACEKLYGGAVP

O=c1c(Cc2ccccc2)nc2c(CC3CCCC3)[nH]c(-c3ccc(O)cc3)cn1-2 [hcp-CTZ, hcp-coelenterazine]
Half Decay Time (Native Aequorin): 0.51 s
Luminescence Intensity for 60 Secs (Native Aequorin): 14.3%
Relative Luminescence Intensity (Native Aequorin): 20.5%
Half Decay Time (Mutant Aequorin AM20): 0.61 s
Luminescence Intensity for 60 Secs (Mutant Aequorin AM20): 7.6%
Relative Luminescence Intensity (Mutant Aequorin AM20): 187%

Oc1ccc(Cc2nc3c(Cc4ccccc4)nc(-c4ccc(O)cc4)cn3c2O)cc1 [CTZ, coelenterazine]
Half Decay Time (Native Aequorin): 0.81 s
Luminescence Intensity for 60 Secs (Native Aequorin): 100%
Relative Luminescence Intensity (Native Aequorin): 100%
Half Decay Time (Mutant Aequorin AM20): 14.12 s
Luminescence Intensity for 60 Secs (Mutant Aequorin AM20): 100%
Relative Luminescence Intensity (Mutant Aequorin AM20): 100%

ameh-coelenterazine [αmeh-CTZ]
Half Decay Time (Native Aequorin): 0.35 s
Luminescence Intensity for 60 Secs (Native Aequorin): 0.9%
Relative Luminescence Intensity (Native Aequorin): 2.2%
Half Decay Time (Mutant Aequorin AM20): 0.61 s
Luminescence Intensity for 60 Secs (Mutant Aequorin AM20): 0.9%
Relative Luminescence Intensity (Mutant Aequorin AM20): 19.4%

Cc1ccc(Cc2nc3c(Cc4ccccc4)[nH]c(-c4ccc(O)cc4)cn-3c2=O)cc1 [me-CTZ, me-coelenterazine]
Half Decay Time (Native Aequorin): 5.00 s
Luminescence Intensity for 60 Secs (Native Aequorin): 45.0%
Relative Luminescence Intensity (Native Aequorin): 5.8%
Half Decay Time (Mutant Aequorin AM20): >60 s
Luminescence Intensity for 60 Secs (Mutant Aequorin AM20): 15.4%
Relative Luminescence Intensity (Mutant Aequorin AM20): 6.8%
half decay time of the luminescence of the semi-synthetic aequorin (Mutant Aequorin AM20): extremely prolonged

COc1cccc(Cc2nc3c(Cc4ccccc4)[nH]c(-c4ccc(O)cc4)cn-3c2=O)c1 [3meo-CTZ, 3meo-coelenterazine]
Half Decay Time (Native Aequorin): 0.52 s
Luminescence Intensity for 60 Secs (Native Aequorin): 35.6%
Relative Luminescence Intensity (Native Aequorin): 64.9%
Half Decay Time (Mutant Aequorin AM20): 1.43 s
Luminescence Intensity for 60 Secs (Mutant Aequorin AM20): 25.0%
Relative Luminescence Intensity (Mutant Aequorin AM20): 266%

et-coelenterazine [et-CTZ]
Half Decay Time (Native Aequorin): 1.21 s
Luminescence Intensity for 60 Secs (Native Aequorin): 44.1%
Relative Luminescence Intensity (Native Aequorin): 27.3%
Half Decay Time (Mutant Aequorin AM20): 1.94 s
Luminescence Intensity for 60 Secs (Mutant Aequorin AM20): 33.6%
Relative Luminescence Intensity (Mutant Aequorin AM20): 56.7%

O=c1c(Cc2ccc(C(F)(F)F)cc2)nc2c(Cc3ccccc3)[nH]c(-c3ccc(O)cc3)cn1-2 [cf3-CTZ, cf3-coelenterazine]
Half Decay Time (Native Aequorin): 5.95 s
Luminescence Intensity for 60 Secs (Native Aequorin): 48.6%
Relative Luminescence Intensity (Native Aequorin): 6.3%
Half Decay Time (Mutant Aequorin AM20): >60 s
Luminescence Intensity for 60 Secs (Mutant Aequorin AM20): 18.6%
Relative Luminescence Intensity (Mutant Aequorin AM20): 7.5%
half decay time of the luminescence of the semi-synthetic aequorin (Mutant Aequorin AM20): extremely prolonged

O=c1c(Cc2cccc(O)c2)nc2c(Cc3ccccc3)[nH]c(-c3ccc(O)cc3)cn1-2 [3iso-CTZ, 3iso-coelenterazine]
Half Decay Time (Native Aequorin): 0.24 s
Luminescence Intensity for 60 Secs (Native Aequorin): 13.4%
Relative Luminescence Intensity (Native Aequorin): 51.6%
Half Decay Time (Mutant Aequorin AM20): 0.66 s
Luminescence Intensity for 60 Secs (Mutant Aequorin AM20): 9.2%
Relative Luminescence Intensity (Mutant Aequorin AM20): 224%

COc1ccc(Cc2nc3c(Cc4ccccc4)[nH]c(-c4ccc(O)cc4)cn-3c2=O)cc1 [meo-CTZ, meo-coelenterazine]
Half Decay Time (Native Aequorin): 1.63 s
Luminescence Intensity for 60 Secs (Native Aequorin): 60.1%
Relative Luminescence Intensity (Native Aequorin): 22.3%
Half Decay Time (Mutant Aequorin AM20): 18.35 s
Luminescence Intensity for 60 Secs (Mutant Aequorin AM20): 35.6%
Relative Luminescence Intensity (Mutant Aequorin AM20): 26.6%
half decay time of the luminescence of the semi-synthetic aequorin (Mutant Aequorin AM20): extremely prolonged

Oc1ccc(-c2cn3c(O)c(Cc4ccccc4)nc3c(Cc3ccccc3)n2)cc1 [h-CTZ, h-coelenterazine]
Half Decay Time (Native Aequorin): 0.69 s
Luminescence Intensity for 60 Secs (Native Aequorin): 70.1%
Relative Luminescence Intensity (Native Aequorin): 87.9%
Half Decay Time (Mutant Aequorin AM20): 2.98 s
Luminescence Intensity for 60 Secs (Mutant Aequorin AM20): 45.4%
Relative Luminescence Intensity (Mutant Aequorin AM20): 220%

i-coelenterazine [i-CTZ]
Half Decay Time (Native Aequorin): 11.42 s
Luminescence Intensity for 60 Secs (Native Aequorin): 65.3%
Relative Luminescence Intensity (Native Aequorin): 5.0%
Half Decay Time (Mutant Aequorin AM20): >60 s
Luminescence Intensity for 60 Secs (Mutant Aequorin AM20): 9.8%
Relative Luminescence Intensity (Mutant Aequorin AM20): 3.6%
half decay time of the luminescence of the semi-synthetic aequorin (Mutant Aequorin AM20): extremely prolonged

Bis-coelenterazine [Bis-CTZ]
Luminescence Intensity for 60 Secs (Native Aequorin): 0.0%
Relative Luminescence Intensity (Native Aequorin): 0.0%
Luminescence Intensity for 60 Secs (Mutant Aequorin AM20): 0.0%
Relative Luminescence Intensity (Mutant Aequorin AM20): 0.0%

Cc1cccc(Cc2nc3c(Cc4ccccc4)[nH]c(-c4ccc(O)cc4)cn-3c2=O)c1 [3me-CTZ, 3me-coelenterazine]
Half Decay Time (Native Aequorin): 0.51 s
Luminescence Intensity for 60 Secs (Native Aequorin): 21.2%
Relative Luminescence Intensity (Native Aequorin): 35.0%
Half Decay Time (Mutant Aequorin AM20): 3.69 s
Luminescence Intensity for 60 Secs (Mutant Aequorin AM20): 35.5%
Relative Luminescence Intensity (Mutant Aequorin AM20): 125%

n-coelenterazine [n-CTZ]
Half Decay Time (Native Aequorin): 4.71 s
Luminescence Intensity for 60 Secs (Native Aequorin): 24.0%
Relative Luminescence Intensity (Native Aequorin): 3.6%
Half Decay Time (Mutant Aequorin AM20): 44.04 s
Luminescence Intensity for 60 Secs (Mutant Aequorin AM20): 1.9%
Relative Luminescence Intensity (Mutant Aequorin AM20): 1.0%
half decay time of the luminescence of the semi-synthetic aequorin (Mutant Aequorin AM20): extremely prolonged

B1: pAM2 + X: aequorin expressed with vector pAM2+X; EF hand loop [I] DVNHNGKISLDE (SEQ ID NO: 13); native aequorin reference (protein)
chain: MTMITPSCKLTSDFDNPRWIGRHKHMFNFLDVNHNGKISLDEMVYKASDIVINNLGATPEQAKRHKDAVEAFFGGAGMKYGVETDWPAYIEGWKKLATDELEKYAKNEPTLIRIWGDALFDIVDKDQNGAITLDEWKAYTKAAGIIQSSEDCEETFRVCDIDESGQLDVDEMTRQHLGFWYTMDPACEKLYGGAVP
Relative Luminescence Activity ([1]; 50 mM calcium solution added, measured 30 seconds, relative to maximum intensity (Imax)): 100.0%
Half Decay Time ([1]; time until luminescence reaches half of maximum intensity): 1.3 s
